Experimental data from patent US6461997B1, “Triazole sulfones having herbicidal activity” (Monsanto Technology LLC, priority 1999, dated 2002).

Experiments:
DATST (jimsonweed) = assay: Pre-plant incorporated (PPI) herbicidal activity, warm season; type: in vivo, Datura stramonium; settings: for Percent inhibition DATST / inhibition at 10 g/ha / inhibition at 30 g/ha / inhibition at 100 g/ha / inhibition at 300 g/ha / inhibition at 900 g/ha: PPI application; for PPI activity (GR80) DATST: pre-plant incorporated, GR80 = lowest tested rate with 80% or greater inhibition, approx. 14 days after treating, 30/21° C.; for inhibition at 10 g/ha / inhibition at 30 g/ha / inhibition at 100 g/ha / inhibition at 300 g/ha / inhibition at 900 g/ha: Datura stramonium, read-out: Percent inhibition DATST
Protocol: (§1) In another set of tests, the pre-plant incorporated (PPI) activity of compounds of this invention was evaluated on the same species as for the pre-emergence tests described above. In the PPI tests the following procedure, designed to simulate PPI application, was used.
(§2) A pre-prepared topsoil mixture (described above) was placed in a pot and compacted to a depth of 1.0 to 1.25 cm from the top of the pot. Seeds of each of several monocotyledonous and dicotyledonous annual plant species were placed on top of the soil. A sufficient quantity of soil to cover the seeds and level fill the pot was weighed into an open container. A known amount of the test compound was dissolved or suspended in an organic solvent and applied by spraying to this cover soil. The cover soil was thoroughly mixed to distribute the test compound throughout the cover soil, and was then applied as a cover layer over the seeds. Untreated soil was used as a cover layer for control pots. After treatment the plants were placed in a greenhouse where they received 0.64 cm of overhead irrigation. All subsequent watering consisted of a light overhead mist and/or subirrigation as needed for germination and growth. Tables 9 and 10 below relate to warm season plant species which were placed after pre-emergence treatment in a greenhouse with a 30/21° C. day/night temperature regime. Tables 11 and 12 below relates to cool season plant species placed after pre-emergence treatment in a greenhouse or growth chamber with an 18/13° C. day/night temperature regime. Only the compounds of Examples 1, 6, 8, 11, 13 and 15-20 were included in PPI tests.
(§3) Approximately 14 days after planting and treating, the plants were observed and herbicidal efficacy recorded as percent inhibition by comparison with untreated plants.

[1] = test system: VERPE (creeping speedwell); assay: Pre-emergence herbicidal activity, cool season; type: in vivo, Veronica persicaria; settings: lowest tested rate with 80% or greater inhibition; rates 300, 100, 30, 10 g/ha; about 14 days
Summary of the method: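 GR80 values derive from percent inhibition relative to untreated plants, read roughly 14 days after sowing and pre-emergence soil-surface treatment (compound in 50:50 acetone/water; rates typically 10, 30, 100, 300 g/ha). Warm-season weeds grew at 30/21° C day/night, cool-season ones at 18/13° C; an asterisk marks activity without reaching 80% at the highest rate.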

ALOMY (blackgrass) = assay: Post-emergence herbicidal activity, cool season; type: in vivo, Alopecurus myosuroides; settings: abraded plants sprayed at 300, 100, 30 and 10 g/ha; about 14 days after treatment
Summary of the method: (§4)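 Post-emergence foliar spray; plants abraded (garnet 200w, ~850 kPa sandblast) before application. Rates 300/100/30/10 g/ha in 50:50 acetone:water, 3,100 l/ha, 511 kPa. Greenhouse 18/13° C. day/night; % inhibition vs abraded unsprayed controls at ~14 days after treatment, GR80 derived.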

[2] = test system: SORHA (johnsongrass (seedling)); assay: Pre-plant incorporated (PPI) herbicidal activity, warm season; type: in vivo, Sorghum halepense; settings: for Percent inhibition SORHA / inhibition at 10 g/ha / inhibition at 30 g/ha / inhibition at 100 g/ha / inhibition at 300 g/ha / inhibition at 900 g/ha: PPI application; for PPI activity GR80, SORHA: pre-plant incorporated, lowest tested rate with 80% or greater inhibition, about 14 days; for inhibition at 10 g/ha / inhibition at 30 g/ha / inhibition at 100 g/ha / inhibition at 300 g/ha / inhibition at 900 g/ha: Sorghum halepense, read-out: Percent inhibition SORHA
Protocol: as §1, §2, §3

POLCO (wild buckwheat) = assay: Pre-plant incorporated (PPI) herbicidal activity, cool season; type: in vivo, Polygonum convolvulus; settings: for PPI activity GR80, POLCO: pre-plant incorporated, lowest tested rate with 80% or greater inhibition, about 14 days; for Percent inhibition POLCO: weed, PPI application
Protocol: as §1, §2, §3

ECHCG (barnyardgrass) = assay: Pre-plant incorporated (PPI) herbicidal activity, warm season; type: in vivo, Echinochloa crus-galli; settings: for Percent inhibition ECHCG / inhibition at 10 g/ha / inhibition at 30 g/ha / inhibition at 100 g/ha / inhibition at 300 g/ha / inhibition at 900 g/ha: PPI application; for PPI activity GR80, ECHCG: pre-plant incorporated, lowest tested rate with 80% or greater inhibition, about 14 days; for inhibition at 10 g/ha / inhibition at 30 g/ha / inhibition at 100 g/ha / inhibition at 300 g/ha / inhibition at 900 g/ha: Echinochloa crus-galli, read-out: Percent inhibition ECHCG
Protocol: as §1, §2, §3

SORVU (shattercane) = assay: Pre-emergence herbicidal activity, warm season; type: in vivo, Sorghum vulgare; settings: GR80 = lowest tested rate (300, 100, 30, 10 g/ha) with 80% or greater inhibition; approx. 14 days after treating; 30/21° C.
Summary of the method: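 Seeds sown in sterilised fertilised topsoil received surface-applied compound in 50:50 acetone/water, typically at 300, 100, 30 and 10 g/ha, then greenhouse-grown at 30/21° C (warm-season species) or 18/13° C (cool-season species). Percent inhibition versus untreated plants was scored at about 14 days, giving GR80; an asterisk marks activity short of 80% at the top rate.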

[3] = test system: AGRRE (quackgrass (seedling)); assay: Post-emergence herbicidal activity, cool season; type: in vivo, Elymus repens; settings: abraded plants sprayed at 300, 100, 30 and 10 g/ha; about 14 days after treatment
Summary of the method: as §4

Row | SMILES | PPI activity (GR80) DATST (DATST (jimsonweed)) | Pre-emergence activity GR80, VERPE [1] | Post-emergence activity GR80, ALOMY (ALOMY (blackgrass)) | PPI activity GR80, SORHA [2] | PPI activity GR80, POLCO (POLCO (wild buckwheat)) | PPI activity GR80, ECHCG (ECHCG (barnyardgrass)) | Pre-emergence activity (GR80) SORVU (SORVU (shattercane)) | Post-emergence activity GR80, AGRRE [3] | inhibition at 10 g/ha (DATST (jimsonweed); 10 g/ha) | inhibition at 30 g/ha (DATST (jimsonweed); 30 g/ha) | inhibition at 100 g/ha (DATST (jimsonweed); 100 g/ha) | inhibition at 300 g/ha (DATST (jimsonweed); 300 g/ha) | inhibition at 900 g/ha (DATST (jimsonweed); 900 g/ha) | inhibition at 10 g/ha ([2]; 10 g/ha) | inhibition at 30 g/ha ([2]; 30 g/ha) | inhibition at 100 g/ha ([2]; 100 g/ha) | inhibition at 300 g/ha ([2]; 300 g/ha) | inhibition at 900 g/ha ([2]; 900 g/ha) | inhibition at 10 g/ha (ECHCG (barnyardgrass); 10 g/ha) | inhibition at 30 g/ha (ECHCG (barnyardgrass); 30 g/ha) | also measured
1 | CCN(CC)C(=O)n1cnc(S(=O)(=O)C(F)(F)SCCOC)n1 [Example 13] | 300 g/ha | 300 g/ha | [empty] | 100 g/ha | * (activity observed, at least at highest rate, but <80% inhibition) | 100 g/ha | * (activity observed, at least at highest rate, but <80% inhibition) | [empty] | – | – | – | – | – | – | – | – | – | – | – | – | Percent inhibition DATST (DATST (jimsonweed); 10 g/ha): 0%; Percent inhibition DATST (DATST (jimsonweed); 30 g/ha): 30%; Percent inhibition DATST (DATST (jimsonweed); 100 g/ha): 50%; Percent inhibition DATST (DATST (jimsonweed); 300 g/ha): 90%; Percent inhibition DATST (DATST (jimsonweed); 900 g/ha): 100%; Percent inhibition SORHA ([2]; 10 g/ha): 30%; Percent inhibition SORHA ([2]; 30 g/ha): 100%; Percent inhibition SORHA ([2]; 100 g/ha): 90%; Percent inhibition SORHA ([2]; 300 g/ha): 100%; Percent inhibition SORHA ([2]; 900 g/ha): 100%; Percent inhibition POLCO (POLCO (wild buckwheat); 10 g/ha): 0%; Percent inhibition POLCO (POLCO (wild buckwheat); 30 g/ha): 50%; Percent inhibition POLCO (POLCO (wild buckwheat); 100 g/ha): 40%; Percent inhibition POLCO (POLCO (wild buckwheat); 300 g/ha): 80%; Percent inhibition POLCO (POLCO (wild buckwheat); 900 g/ha): 90%; Percent inhibition ECHCG (ECHCG (barnyardgrass); 10 g/ha): 10%; Percent inhibition ECHCG (ECHCG (barnyardgrass); 30 g/ha): 80%; Percent inhibition ECHCG (ECHCG (barnyardgrass); 100 g/ha): 100%; Percent inhibition ECHCG (ECHCG (barnyardgrass); 300 g/ha): 100%; Percent inhibition ECHCG (ECHCG (barnyardgrass); 900 g/ha): 100%
2 | C=CCC(F)(F)S(=O)(=O)c1ncn(C(=O)N(CC)CC)n1 [Example 17, 1-(N,N-diethylcarbamoyl)-3-[(1,1-difluoro-3-butenyl)sulfonyl]-1,2,4-triazole] | 300 g/ha | 100 g/ha | [empty] | 10 g/ha | 100 g/ha | 30 g/ha | 100 g/ha | [empty] | 0% | 0% | 30% | 60% | 99% | 95% | 60% | 100% | 100% | 100% | 40% | 95% | inhibition at 100 g/ha (ECHCG (barnyardgrass); 100 g/ha): 100%; inhibition at 300 g/ha (ECHCG (barnyardgrass); 300 g/ha): 100%; inhibition at 900 g/ha (ECHCG (barnyardgrass); 900 g/ha): 100%
3 | C=C(C)CC(F)(F)S(=O)(=O)c1ncn(C(=O)N(CC)CC)n1 [Example 18] | 300 g/ha | 300 g/ha | [empty] | 300 g/ha | 100 g/ha | 30 g/ha | * (activity observed, at least at highest rate, but <80% inhibition) | [empty] | 0% | 0% | 0% | 60% | 100% | 100% | 100% | 100% | 100% | 100% | 30% | 100% | inhibition at 100 g/ha (ECHCG (barnyardgrass); 100 g/ha): 100%; inhibition at 300 g/ha (ECHCG (barnyardgrass); 300 g/ha): 100%; inhibition at 900 g/ha (ECHCG (barnyardgrass); 900 g/ha): 100%
4 | C=C(Br)CC(F)(F)S(=O)(=O)c1ncn(C(=O)N(CC)CC)n1 [Example 19] | 300 g/ha | 300 g/ha | [empty] | 100 g/ha | * (activity observed, at least at highest rate, but <80% inhibition) | 30 g/ha | 300 g/ha | [empty] | 0% | 0% | 0% | 90% | 99% | 60% | 80% | 100% | 100% | 100% | 20% | 20% | inhibition at 100 g/ha (ECHCG (barnyardgrass); 100 g/ha): 100%; inhibition at 300 g/ha (ECHCG (barnyardgrass); 300 g/ha): 100%; inhibition at 900 g/ha (ECHCG (barnyardgrass); 900 g/ha): 100%
5 | C=C(CC(F)(F)S(=O)(=O)c1ncn(C(=O)N(CC)CC)n1)C[Si](C)(C)C [Example 20] | 300 g/ha | [empty] | [empty] | 100 g/ha | * (activity observed, at least at highest rate, but <80% inhibition) | 300 g/ha | 300 g/ha | [empty] | – | – | – | – | – | – | – | – | – | – | – | – | Percent inhibition DATST (DATST (jimsonweed); 10 g/ha): 0%; Percent inhibition DATST (DATST (jimsonweed); 30 g/ha): 0%; Percent inhibition DATST (DATST (jimsonweed); 100 g/ha): 0%; Percent inhibition DATST (DATST (jimsonweed); 300 g/ha): 20%; Percent inhibition DATST (DATST (jimsonweed); 900 g/ha): 60%; Percent inhibition SORHA ([2]; 30 g/ha): 0%; Percent inhibition SORHA ([2]; 100 g/ha): 20%; Percent inhibition SORHA ([2]; 300 g/ha): 80%; Percent inhibition SORHA ([2]; 900 g/ha): 80%; Percent inhibition ECHCG (ECHCG (barnyardgrass); 10 g/ha): 0%; Percent inhibition ECHCG (ECHCG (barnyardgrass); 30 g/ha): 0%; Percent inhibition ECHCG (ECHCG (barnyardgrass); 100 g/ha): 20%; Percent inhibition ECHCG (ECHCG (barnyardgrass); 300 g/ha): 70%; Percent inhibition ECHCG (ECHCG (barnyardgrass); 900 g/ha): 100%
